The values below come from patent EP0317873B1, “Radioiodinated benzamides and method of their use as radioimaging agents” (THE VANDERBILT UNIVERSITY, priority 1987, dated 1989).

The target in test [1] is T1, D-2 receptor (Rattus norvegicus, UniProt P61169).
T1 construct: 90 µL of the striatal membrane preparation; from tissue; host or cells: rat striatum (membrane preparation)
Description: Displacement of [3H]sulpiride binding to rat striatal membranes (receptor binding assay). The note with it: read-out: [³H]sulpiride binding IC₅₀, radioligand concentration 2.9 nM, nonspecific binding in the presence of 10 µM sulpiride, 30 min at 37°C. On the procedure:
(§1) Lett. 64:163-168 (1986). […] Male Sprague-Dawley rats (150-200 g) were killed by decapitation and their brains quickly removed and dissected on ice. Striata were dissected and homogenized in 40 vol of ice-cold Tris-HCl (50 mM) containing 123 mM NaCl, 5 mM KCl, 2 mM CaCl₂ and 1 mM MgCl₂ (pH 7.4) using a Brinkman Polytron. The suspension was centrifuged at 30,000 x g for 10 min at 4°C, and the pellet was resuspended in 40 vol of fresh buffer with polytron. The suspension was incubated at 37°C for 10 min, centrifuged again at 30,000 x g for 10 min (4°C) and the final pellet was resuspended with the polytron in 200 vol of ice cold buffer. Assay tubes contained 50 µM or radioligand at 2.9 nM concentration and 90 µL of the striatal membrane preparation. Nonspecific binding was determined in the presence of 10 µM(-)[¹²⁵I](S)-II. Tubes were incubated for 30 min at 37°C, poured over Whatman GF/B filters under vacuum, and the filters were rinsed three times with 4 mL of ice cold buffer. Radioactivity remaining on the filters was measured by liquid scintillation on a Quantum 9 Multichannel analyzer operating at 35% efficiency.
(In general: In a radioligand displacement assay an active substance lowers the binding of a labelled ligand.)

For test [2], the target named is T1, D-2 receptor. As to the kind of experiment: Displacement of [125I](S)-II binding to rat striatal membranes (receptor binding assay). The note with it: radioligand concentration 0.46 nM, nonspecific binding in the presence of 10 µM of (S)-II, 30 min at 37°C, read-out: [¹²⁵I]-(S) II binding IC₅₀. As to the method:
as §1, with “Assay tubes contained 50 µM or radioligand at 2.9 nM concentration and 90 µL of the striatal membrane preparation.” left out

Test [3] deals with T1, D-2 receptor. Description: Saturation binding of [125I](S)-II to rat striatal membranes (Scatchard analysis, time course). On the procedure: Male Sprague-Dawley rats (150-200 g) were killed by decapitation and their brains quickly removed and dissected on ice. Striata were dissected and homogenized in 40 vol of ice-cold Tris-HCl (50 mM) containing 123 mM NaCl, 5 mM KCl, 2 mM CaCl₂ and 1 mM MgCl₂ (pH 7.4) using a Brinkman Polytron. The suspension was centrifuged at 30,000 x g for 10 min at 4°C, and the pellet was resuspended in 40 vol of fresh buffer with polytron. The suspension was incubated at 37°C for 10 min, centrifuged again at 30,000 x g for 10 min (4°C) and the final pellet was resuspended with the polytron in 200 vol of ice cold buffer. Assay tubes contained […] or radioligand at 2.9 nM concentration and 90 µL of the striatal membrane preparation. Nonspecific binding was determined in the presence of 10 µM(-)[¹²⁵I](S)-II. Tubes were incubated for 30 min at 37°C, poured over Whatman GF/B filters under vacuum, and the filters were rinsed three times with 4 mL of ice cold buffer. Radioactivity remaining on the filters was measured by liquid scintillation on a Quantum 9 Multichannel analyzer operating at 35% efficiency. […]

[4] abbreviates: at 37°C, rat striatal membranes.

pIC50, pKd: −log10 of the molar value.

T1 sequence (P61169 whole entry): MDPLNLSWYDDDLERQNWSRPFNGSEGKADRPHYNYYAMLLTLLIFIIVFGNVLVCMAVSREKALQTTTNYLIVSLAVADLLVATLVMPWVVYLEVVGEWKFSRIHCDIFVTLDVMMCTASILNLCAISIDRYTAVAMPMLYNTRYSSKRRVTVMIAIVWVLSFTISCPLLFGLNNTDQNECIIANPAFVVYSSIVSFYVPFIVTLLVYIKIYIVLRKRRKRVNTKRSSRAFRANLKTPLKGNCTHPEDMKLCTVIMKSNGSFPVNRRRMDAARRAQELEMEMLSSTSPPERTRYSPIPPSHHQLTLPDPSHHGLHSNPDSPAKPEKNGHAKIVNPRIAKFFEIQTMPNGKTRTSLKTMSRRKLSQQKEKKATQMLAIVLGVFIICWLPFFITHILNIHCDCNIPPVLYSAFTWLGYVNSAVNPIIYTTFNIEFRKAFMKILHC

For `CCN1CCC[C@@H]1CNC(=O)c1cc(I)ccc1OC` [(R)-II], the values for the pIC50 at D-2 receptor [1] and at D-2 receptor [2] were 6.84 and 6.77, respectively.
`CCN1CCC[C@H]1CNC(=O)c1cc(I)ccc1OC` [(S)-II, (S)-N-[(1-ethyl-2-pyrrolidinyl)methyl]-5-iodo-2-methoxybenzamide]: the pIC50 on D-2 receptor [2] was 8.30.
In general, pKd refers to the Kd on a negative log10 scale, so that one unit is a factor of ten. High values mean a low Kd, low ones a high Kd. With `CCN1CCC[C@H]1CNC(=O)c1cc([125I])ccc1OC` [Example 1], the “maximal number of binding sites” value at D-2 receptor [3] (Scatchard analysis of the saturation isotherm, rat striatal membranes) is listed as 169 fmol/mg protein. Moreover, the pKd at D-2 receptor [3] (Scatchard analysis of the saturation isotherm, single set of binding sites, rat striatal membranes) was 9.00. At D-2 receptor [3] (setting [4]), the “time binding remained stable” value is “at least 60 min” and the “time for binding to reach equilibrium” value is on record as no more than 20 min. The “character of binding to rat striated membranes” value at D-2 receptor [3] (conditions of the receptor binding assay) is “saturable, reversible and stereospecific”.
